#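 Test compounds were applied to cells in 96-well plates for 48 hours at 5 doses. GI50: concentration for 50% inhibition of growth. TGI: concentration producing complete growth inhibition.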 *1 amine or outer side, *2 acyl side, *3 side chain or, on linkers, in order; H or OH if unused. Where a SMILES comes first, the peptide text is derived from it. [ ]: non-standard residue; d: D form. X33 = C=CCC(O[*:1])C(=O)[*:2]; NMeV = CN[CH](C(=O)O)C(C)C; NMeA = CN[CH](C)C(=O)O; βAla = NCCC(=O)O
# Experiments:
# Experiment in all cases: NCI-60 cell line screen, 48 h
# NCI-H522 lung = system: NCI-H522 lung
# EKVX NSCLC = system: EKVX NSCLC
# HCT-15 colon = system: HCT-15 colon
# SK-MEL-28 melanoma = system: SK-MEL-28 melanoma
# MALME-3M melanoma = system: MALME-3M melanoma
# A498 renal = system: A498 renal
# CAKI-1 renal = system: CAKI-1 renal
# RXF 393 renal = system: RXF 393 renal
# SR leukemia = system: SR leukemia
# BT-549 breast = system: BT-549 breast
# HS 578T breast = system: HS 578T breast
Compound,TGI (NCI-H522 lung) [µM],TGI (EKVX NSCLC) [µM],TGI (HCT-15 colon) [µM],TGI (SK-MEL-28 melanoma) [µM],TGI (MALME-3M melanoma) [µM],TGI (A498 renal) [µM],TGI (CAKI-1 renal) [µM],TGI (RXF 393 renal) [µM],TGI (SR leukemia) [µM],TGI (BT-549 breast) [µM],TGI (HS 578T breast) [µM],GI50 (NCI-H522 lung) [µM],GI50 (SR leukemia) [µM],GI50 (EKVX NSCLC) [µM],GI50 (HCT-15 colon) [µM],GI50 (SK-MEL-28 melanoma) [µM],GI50 (MALME-3M melanoma) [µM],GI50 (A498 renal) [µM],GI50 (BT-549 breast) [µM],GI50 (HS 578T breast) [µM]
O=C(NN1C(=O)CSC1c1ccc(C(F)(F)F)cc1)c1ccncc1 (stereo unspecified),> 100,> 100,> 100,> 100,> 100,> 31.6,> 100,> 100,–,–,–,–,–,–,–,–,–,–,–,–
C/C(=N\NC(=S)Nc1ccc(C)cc1)c1nc2ncccc2[nH]1,–,7.27,19.4,18.4,37.5,23.4,> 100,–,> 100,11.8,58.9,–,–,–,–,–,–,–,–,–
COc1ccc(-c2c3c(nc4nc(SC)nc(SC)c24)CCCC3)cc1OC,> 100,> 100,> 100,> 100,> 100,> 100,> 100,> 100,46.4,> 100,86.3,–,–,–,–,–,–,–,–,–
Nc1nc(N)c2[nH]cnc2n1 (tested in a mixture with another compound),54.2,60.1,> 100,> 100,> 100,45.1,> 100,80.6,> 100,> 100,> 100,–,–,–,–,–,–,–,–,–
NC(=S)N/N=C1\c2ccccc2CCC1CCC1(O)CCc2ccccc2C1=O (stereo unspecified),–,59.5,> 100,45.8,36.7,–,> 100,36.3,> 100,31.6,63,–,–,–,–,–,–,–,–,–
CCc1nnc(-c2nsc3ccccc23)s1,–,> 100,> 100,> 100,–,–,–,> 100,> 100,–,–,–,–,–,–,–,–,–,–,–
COc1cc2c(cc1OC)C(C)N(C)c1c-2c(OC(C)=O)cc2cc(OC)c(OC)cc12 (stereo unspecified),19.2,61.9,> 81.2,> 60.1,14.8,> 52.9,49.5,31.1,–,47.1,> 57.1,–,–,–,–,–,–,–,–,–
O=S(=O)(O)c1ccc2c(N=Nc3ccc(F)cc3)c(O)c(S(=O)(=O)O)cc2c1,> 100,> 100,> 100,> 100,> 100,> 100,> 100,> 100,> 100,> 100,> 100,–,–,–,–,–,–,–,–,–
C=CCC1OC(=O)CCNC(=O)C(C)N(C)C(=O)C(C(C)C)N(C)C(=O)C(C(C)CC)NC(=O)C2CCCN2C1=O (stereo unspecified) (cyclo([X33]PI[NMeV][NMeA][βAla]); configuration not given here),> 100,> 100,> 100,> 100,–,–,> 100,–,> 100,> 100,> 100,–,–,–,–,–,–,–,–,–
C[C@]12CCc3sc(Nc4ccc(O)cc4)nc3C1=CC[C@@H]1[C@@H]2CC[C@]2(C)C(=O)CC[C@@H]12,2.96,> 100,4.4,4.75,4.03,80.6,–,–,> 100,> 100,> 100,1.42,2.72,10.4,1.66,2.08,1.81,14.2,3.13,3.38
O=C(O)CC1(CC(=O)O)Nc2ccccc2SC1=O,> 100,> 100,> 100,> 100,> 100,> 100,> 100,> 100,> 100,> 100,> 100,–,–,–,–,–,–,–,–,–
CCSc1nc(=[N+]2CCCC2)ss1,> 100,> 100,> 92.8,> 100,> 100,> 100,> 100,> 83.3,–,95.9,> 100,–,–,–,–,–,–,–,–,–
Clc1nc(NCCc2ccccc2)c2ncn(-c3ccccc3)c2n1,56.4,68.3,> 100,94.1,52.4,41.9,34,> 100,–,60,76.7,–,–,–,–,–,–,–,–,–
Cc1ccc(Nc2nc(NS(=O)(=O)c3cc(C(=O)Nc4ccc(Cl)cc4)c(Cl)cc3S)n[nH]2)cc1,–,> 100,> 100,> 100,> 100,–,> 100,> 100,> 100,> 100,> 100,–,–,–,–,–,–,–,–,–
O=C1OCC/C1=C/c1ccc(N=Nc2c(O)ccc3ccccc23)cc1,41.8,41.8,60.7,38.4,32.3,34.2,34.8,36.8,37.5,49.9,54.3,–,–,–,–,–,–,–,–,–
CN1CCN(c2cc(-c3cc4ccccc4o3)oc(=O)c2C#N)CC1,–,> 100,> 100,> 100,> 100,> 100,> 100,> 100,> 100,–,–,–,–,–,–,–,–,–,–,–
Cc1ccc2c(C)c3ccc4ccccc4c3c[n+]2c1,28.3,> 100,> 100,33,9.74,> 100,> 100,67.4,42.8,–,–,–,–,–,–,–,–,–,–,–
CC1OC1C(=O)C1(O)C(C)C(O)C23OC2(C(O)c2c(O)cccc2C3=O)C1O (stereo unspecified),0.338,0.541,0.926,0.682,0.247,1.2,0.253,0.599,–,–,–,–,–,–,–,–,–,–,–,–

# Source: PubChem BioAssay (NCI)
